{"source": "patent US12180223B2", "about": "(Boehringer Ingelheim International GmbH, priority 2021, dated 2024)", "key": {"[1]": {"biological_target": "T1, human TRPA1 ion channel (Homo sapiens, UniProt O75762)", "T1 construct": "host or cells: HEK293", "T1 sequence (O75762 whole entry)": "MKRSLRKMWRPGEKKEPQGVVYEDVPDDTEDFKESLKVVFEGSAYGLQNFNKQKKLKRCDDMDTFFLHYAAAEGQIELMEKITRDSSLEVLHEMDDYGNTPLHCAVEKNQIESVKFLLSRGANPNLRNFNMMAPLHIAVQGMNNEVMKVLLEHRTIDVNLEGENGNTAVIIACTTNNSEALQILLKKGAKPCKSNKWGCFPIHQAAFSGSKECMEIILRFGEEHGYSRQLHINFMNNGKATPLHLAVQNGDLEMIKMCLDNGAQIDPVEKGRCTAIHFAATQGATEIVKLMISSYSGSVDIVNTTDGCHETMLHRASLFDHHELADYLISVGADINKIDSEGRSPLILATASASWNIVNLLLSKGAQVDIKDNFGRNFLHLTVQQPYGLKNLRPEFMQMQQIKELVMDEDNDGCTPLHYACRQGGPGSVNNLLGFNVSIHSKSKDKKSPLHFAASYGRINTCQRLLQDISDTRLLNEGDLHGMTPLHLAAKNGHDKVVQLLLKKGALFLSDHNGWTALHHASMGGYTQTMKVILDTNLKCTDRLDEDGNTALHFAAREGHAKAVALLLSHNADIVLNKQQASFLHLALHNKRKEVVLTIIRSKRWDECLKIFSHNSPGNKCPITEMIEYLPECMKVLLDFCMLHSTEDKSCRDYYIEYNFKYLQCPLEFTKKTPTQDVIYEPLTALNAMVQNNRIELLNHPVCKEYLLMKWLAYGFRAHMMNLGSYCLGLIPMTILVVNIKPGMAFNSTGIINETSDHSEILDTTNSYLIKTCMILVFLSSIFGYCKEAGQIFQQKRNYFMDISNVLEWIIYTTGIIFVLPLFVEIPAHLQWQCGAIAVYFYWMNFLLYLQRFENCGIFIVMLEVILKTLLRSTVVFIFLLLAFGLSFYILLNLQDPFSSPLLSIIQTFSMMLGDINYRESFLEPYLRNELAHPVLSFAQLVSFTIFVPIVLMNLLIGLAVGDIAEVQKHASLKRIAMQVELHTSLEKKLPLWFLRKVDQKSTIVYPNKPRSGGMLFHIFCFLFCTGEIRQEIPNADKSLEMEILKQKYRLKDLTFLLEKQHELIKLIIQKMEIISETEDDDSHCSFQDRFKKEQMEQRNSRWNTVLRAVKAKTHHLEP", "assay": "Assay A: TRPA1 assay (FLIPR calcium, AITC agonism, HEK293 over-expressing human TRPA1)", "assay_type": "cell-based", "conditions": "read-out: hTRPA1 IC50", "experimental": "A human HEK293 cell line over-expressing the human TRPA1 ion channel (Perkin Elmer, Product No. AX-004-PCL) is used as a test system for compound efficacy and potency. Compound activity is determined by measuring the effect of compounds on intracellular calcium concentration induced by AITC (Allylisothiocyanate) agonism in a FLIPRtetra system (Molecular Devices).\nThe cells are obtained as frozen cells in cryo-vials and stored until use at −150° C. Cells are grown in culture medium (MEM/EBSS medium with 10% FCS and 0.4 mg/ML Geneticin). […] For sub-culturing cells are detached from flasks by Versene. At the day before the assay, cells are detached, washed twice with medium (MEM/EBSS medium with 10% FCS) and 20000 cells in 20 μl/well are seeded to Poly D-Lysin biocoated 384-well plates (black, clear bottom, Cat. 356697) from Corning. Plates are incubated for 24 hours at 37° C./5% CO2 before use in the assay.\nThe test compounds are dissolved in 100% DMSO at a concentration of 10 mM and in a first step diluted in DMSO to a concentration of 5 mM, followed by serial dilution steps in 100% DMSO. Dilution factor and number of dilution steps may vary according to needs. Typically 8 different concentrations by 1:5 dilutions are prepared, further intermediate dilutions (1:20) of the substances are carried out with HBSS/HEPES buffer (1×HEPES, Cat. 14065 from Gibco, 20 mM HEPES, Cat. 83264 from SIGMA, 0.1% BSA Cat. 11926 from Invitrogen, pH 7.4\nAt the assay day cells are washed 3× with assay puffer, 20 μL buffer remaining in the wells after washing. 10 μL Ca6 kit (Cat. R8191 MolecularDevices) loading buffer in HBSS/HEPES is added to the cells and the plates are incubated with lid for 120 minutes at 37°/5% CO2. 10 μL of compound or controls in HBSS/HEPES buffer/5% DMSO from the intermediate dilution plate are carefully added to the wells. […] Finally 10 μL of the agonist AITC 50 μM dissolved in HBSS/HEPES buffer/0.05% DMSO (final concentration 10 μM) is added to the wells followed by an additional read on the FLIPRtetra device for 10 minutes. The area under the signal curve (AUC) after AITC addition is used for IC50/% inhibition calculations\nData Evaluation and Calculation:\nEach assay microtiter plate contains wells with vehicle (1% DMSO) controls instead of compound as controls for AITC induced luminescence (100% CTL; high controls) and wells with vehicle controls without AITC as controls for non-specific changes in luminescence (0% CTL; low controls).\nThe analysis of the data is performed by the calculation of the area under signal curve of the individual wells. Based on this values the % value for the measurement of each substance concentration is calculated (AUC(sample)−AUC(low))*100/(AUC(high)−AUC(low)) using MegaLab software (in house development). The IC50 values are calculated from the % control values using MegaLab software. Calculation: [y=(a−d)/(1+(x/c)^b)+d], a=low value, d=high value; x=conc M; c=IC50 M; b=hill; y=% ctrl"}, "[2]": {"assay": "Assay B: Microsomal clearance", "assay_type": "in vitro ADME, human", "conditions": "compounds of the invention; pooled liver microsomes 1 mg/ml, test compound 1 μM, NADPH, 37° C.", "experimental": "Evaluation of Microsomal Clearance Assay B: Microsomal Clearance:\nThe metabolic degradation of the test compound is assayed at 37° C. with pooled liver microsomes. The final incubation volume of 100 μl per time point contains TRIS buffer pH 7.6 at RT (0.1 M), magnesium chloride (5 mM), microsomal protein (1 mg/ml) and the test compound at a final concentration of 1 μM.\nFollowing a short preincubation period at 37° C., the reactions are initiated by addition of beta-nicotinamide adenine dinucleotide phosphate, reduced form (NADPH, 1 mM) and terminated by transferring an aliquot into solvent after different time points (0, 5, 15, 30, 60 min). Additionally, the NADPH-independent degradation is monitored in incubations without NADPH, terminated at the last time point. The [%] remaining test compound after NADPH independent incubation is reflected by the parameter c(control) (metabolic stability). The quenched incubations are pelleted by centrifugation (10000 g, 5 min). An aliquot of the supernatant is assayed by LC-MS/MS for the amount of parent compound. The half-life (t½ INVITRO) is determined by the slope of the semilogarithmic plot of the concentration-time profile."}, "[3]": {"assay": "Assay C: Hepatocyte clearance", "assay_type": "in vitro ADME, human", "conditions": "compounds of the invention; hepatocyte suspension, 5% species serum, test compound 1 μM, six hours", "experimental": "Evaluation of Hepatocyte Clearance Assay C: Hepatocyte Clearance\nThe metabolic degradation of the test compound is assayed in a hepatocyte suspension. Hepatocytes (cryopreserved) are incubated in Dulbecco's modified eagle medium (supplemented with 3.5 μg glucagon/500 mL, 2.5 mg insulin/500 mL and 3.75 mg/500 mL hydrocortisone) containing 5% species serum.\nThe cells are incubated for six hours (incubator, orbital shaker) and samples (25 μl) are taken at 0, 0.5, 1, 2, 4 and 6 hours. Samples are transferred into acetonitrile and pelleted by centrifugation (5 min). The supernatant is transferred to a new 96-deepwell plate, evaporated under nitrogen and resuspended.\nDecline of parent compound is analyzed by HPLC-MS/MS\nCLint is calculated as follows CL_[…]=Dose/AUC=(C0/CD)/(AUD+clast/k)×1000/60. C0: initial concentration in the incubation [μM], CD: cell density of vital cells [10e6 cells/mL], AUD: area under the data [μM×h], clast: concentration of last data point [μM], k: slope of the regression line for parent decline [h−1].\nThe calculated in vitro hepatic intrinsic clearance can be scaled up to the intrinsic in vivo hepatic Clearance and used to predict hepatic in vivo blood clearance (CL) by the use of a liver model (well stirred model)."}}, "data": [{"compound": "NC(=O)c1csc2ncn(Cc3nc(C[C@H](O)c4cc5ccccc5s4)no3)c(=O)c12", "note": "[Example 3]", "values": [{"measurement": "IC50", "setting": "[1]", "value": 9, "unit": "nM"}, {"measurement": "human LM", "setting": "[2]", "value": 39, "unit": "% Qh"}]}, {"compound": "NC(=O)c1csc2ncn(Cc3nc(C[C@H](O)c4cc5cc(F)ccc5o4)no3)c(=O)c12", "note": "[Example 6]", "values": [{"measurement": "IC50", "setting": "[1]", "value": 12, "unit": "nM"}, {"measurement": "human Hepatocytes", "setting": "[3]", "value": 22, "unit": "% Qh"}, {"measurement": "human LM", "setting": "[2]", "value": 23, "unit": "% Qh"}]}, {"compound": "NC(=O)c1csc2ncn(Cc3nc(C[C@H](O)c4ccc(Cl)cc4)no3)c(=O)c12", "note": "[Example 1, 3-({3-[(2S)-2-(4-chlorophenyl)-2-hydroxyethyl]-1,2,4-oxadiazol-5-yl}methyl)-4-oxo-3H,4H-thieno[2,3-d]pyrimidine-5-carboxamide]", "values": [{"measurement": "IC50", "setting": "[1]", "value": 29, "unit": "nM"}, {"measurement": "human Hepatocytes", "setting": "[3]", "value": 22, "unit": "% Qh"}, {"measurement": "human LM", "setting": "[2]", "value": "<23", "unit": "% Qh"}]}, {"compound": "NC(=O)c1csc2ncn(Cc3nc(C[C@H](O)c4ccc(I)cc4)no3)c(=O)c12", "note": "[Example 5]", "values": [{"measurement": "IC50", "setting": "[1]", "value": 12, "unit": "nM"}, {"measurement": "human Hepatocytes", "setting": "[3]", "value": 24, "unit": "% Qh"}, {"measurement": "human LM", "setting": "[2]", "value": "<23", "unit": "% Qh"}]}, {"compound": "Cc1ccc([C@@H](O)Cc2noc(Cn3cnc4scc(C(N)=O)c4c3=O)n2)cc1", "note": "[Example 7]", "values": [{"measurement": "IC50", "setting": "[1]", "value": 22, "unit": "nM"}, {"measurement": "human Hepatocytes", "setting": "[3]", "value": 26, "unit": "% Qh"}]}, {"compound": "NC(=O)c1csc2ncn(Cc3nc(C[C@H](O)c4ccc(F)cc4)no3)c(=O)c12", "note": "[Example 8]", "values": [{"measurement": "IC50", "setting": "[1]", "value": 57, "unit": "nM"}, {"measurement": "human Hepatocytes", "setting": "[3]", "value": 13, "unit": "% Qh"}, {"measurement": "human LM", "setting": "[2]", "value": "<23", "unit": "% Qh"}]}, {"compound": "COc1ccc([C@@H](O)Cc2noc(Cn3cnc4scc(C(N)=O)c4c3=O)n2)cc1", "note": "[Example 10]", "values": [{"measurement": "IC50", "setting": "[1]", "value": 87, "unit": "nM"}, {"measurement": "human Hepatocytes", "setting": "[3]", "value": 19, "unit": "% Qh"}, {"measurement": "human LM", "setting": "[2]", "value": "<23", "unit": "% Qh"}]}, {"compound": "NC(=O)c1csc2ncn(Cc3nc(C[C@H](O)c4cc5ccc(F)cc5s4)no3)c(=O)c12", "note": "[Example 2]", "values": [{"measurement": "IC50", "setting": "[1]", "value": 7, "unit": "nM"}, {"measurement": "human Hepatocytes", "setting": "[3]", "value": 36, "unit": "% Qh"}, {"measurement": "human LM", "setting": "[2]", "value": 43, "unit": "% Qh"}]}, {"compound": "NC(=O)c1csc2ncn(Cc3nc(C[C@H](O)c4cc5cc(Cl)ccc5o4)no3)c(=O)c12", "note": "[Example 4]", "values": [{"measurement": "IC50", "setting": "[1]", "value": 9, "unit": "nM"}, {"measurement": "human Hepatocytes", "setting": "[3]", "value": 34, "unit": "% Qh"}, {"measurement": "human LM", "setting": "[2]", "value": 34, "unit": "% Qh"}]}, {"compound": "NC(=O)c1csc2ncn(Cc3nc(C[C@H](O)c4ccc(Cl)s4)no3)c(=O)c12", "note": "[Example 9]", "values": [{"measurement": "IC50", "setting": "[1]", "value": 77, "unit": "nM"}, {"measurement": "human Hepatocytes", "setting": "[3]", "value": 61, "unit": "% Qh"}, {"measurement": "human LM", "setting": "[2]", "value": 27, "unit": "% Qh"}]}]}
